Laboratory results: paper PMC6199744, “Development of Chemical Proteomics for the Folateome and Analysis of the Kinetoplastid Folateome” (ACS Infectious Diseases, 2018)

Test system: L. major lysate proteins
Assay: Multitargeted bead mixture chemoproteomics, single concentration competition, proteome-wide
Format: binding
Details: for fold change / fold change relative to vehicle control: vehicle control = 1; for fold change relative to vehicle control: competition with free ligand

CCCCCCOc1ccc(Cc2cnc(N)nc2N)cc1 [compound 1]
fold change (protein LMJF.22.1460 I/6 AUTOANTIGEN-LIKE PROTEIN): 0.95 | fold change vs vehicle control (protein LMJF.22.1540 ALANYL-TRNA SYNTHETASE, PUTATIVE): 0.85 | fold change vs vehicle control (protein LMJF.23.0370 […] OXIDASE SUBUNIT 10, PUTATIVE): 1.08 | fold change (protein LMJF.23.0830 NA/H ANTIPORTER-LIKE PROTEIN): 0.89 | fold change (protein LMJF.23.1020 HYPOTHETICAL PROTEIN, UNKNOWN FUNCTION): 0.87 | fold change (protein LMJF.23.1220 T-COMPLEX PROTEIN 1, GAMMA SUBUNIT, PUTATIVE): 1.03 | fold change vs vehicle control (protein LMJF.24.0140 ANKYRIN/TPR REPEAT PROTEIN): 1.09 | fold change (protein LMJF.24.0280 DYNEIN INTERMEDIATE-CHAIN-LIKE PROTEIN): 0.97 | fold change (protein LMJF.24.0770 MALIC ENZYME, PUTATIVE): 0.95 | fold change relative to vehicle control (protein LMJF.24.1510 IGE-DEPENDENT HISTAMINE-RELEASING FACTOR, PUTATIVE): 1.09 | fold change vs vehicle control (protein LMJF.24.1630, SUCCINATE DEHYDROGENASE FLAVOPROTEIN, PUTATIVE): 0.9 | fold change vs vehicle control (protein LMJF.24.1840 LYSOPHOSPHOLIPASE, PUTATIVE): 1.07 | fold change relative to vehicle control (protein LMJF.24.2060 TRANSKETOLASE): 0.84 | fold change (protein LMJF.24.2250 FATTY-ACID DESATURASE, PUTATIVE): 1.09 | fold change vs vehicle control (protein LMJF.25.0120 ELECTRON TRANSFER FLAVOPROTEIN, PUTATIVE): 1.75 | fold change vs vehicle control (protein LMJF.25.0260 DYNEIN LIGHT CHAIN 1, CYTOPLASMIC, PUTATIVE): 0.91 | fold change relative to vehicle control (protein LMJF.25.0910 C[…]): 1.46 | fold change vs vehicle control (protein LMJF.25.1180, ATPASE BETA SUBUNIT, PUTATIVE): 1.06 | fold change (protein LMJF.25.1610 HYPOTHETICAL PROTEIN, CONSERVED): 0.79 | fold change (protein LMJF.25.1620 HY[…], CONSERVED): 1.11 | fold change vs vehicle control (protein LMJF.26.1240 HEAT SHOCK PROTEIN 70-RELATED PROTEIN): 1.01 | fold change vs vehicle control (protein LMJF.26.1710 […] OXIDASE SUBUNIT V, PUTATIVE): 1.04 | fold change vs vehicle control (protein LMJF.26.1960 HY[…], CONSERVED): 1.01 | fold change vs vehicle control (protein LMJF.26.2000 HY[…], CONSERVED): 1.05 | fold change vs vehicle control (protein LMJF.27.0420 RIBOKINASE, PUTATIVE): 1.05 | fold change vs vehicle control (protein LMJF.27.1060 CYSTEINE DESULFURASE, PUTATIVE): 0.97 | fold change (protein LMJF.27.1310 ARGINYL-TRNA SYNTHETASE, PUTATIVE): 1.05 | fold change vs vehicle control (protein LMJF.27.2400 HEAT SHOCK PROTEIN DNAJ, PUTATIVE): 0.91 | fold change vs vehicle control (protein LMJF.28.0110 […] 3 SUBUNIT, PUTATIVE): 1.04 | fold change vs vehicle control (protein LMJF.28.0930 HYPOTHETICAL PROTEIN, CONSERVED): 1 | fold change vs vehicle control (protein LMJF.28.0950 HY[…], CONSERVED): 1.07 | fold change vs vehicle control (protein LMJF.28.1950 X-PRO, DIPEPTIDYL-PEPTIDASE,SERINE PEPTIDASE, CLAN SC, FAMILY S15, PUTATIVE): 0.94 | fold change relative to vehicle control (protein LMJF.28.2770 HEAT-SHOCK PROTEIN HSP70, PUTATIVE): 1.15 | fold change (protein LMJF.29.0060 TRYPTOPHANYL-TRNA SYNTHETASE, PUTATIVE): 1 | fold change (protein LMJF.29.0820 CYSTEINE PEPTIDASE C (CPC)): 0.78 | fold change relative to vehicle control (protein LMJF.29.0850 HIGH MOBILITY GROUP PROTEIN HOMOLOG TDP-1, PUTATIVE): 1.77 | fold change vs vehicle control (protein LMJF.29.1160 TRYPAREDOXIN): 1 | fold change (protein LMJF.29.1760 PARAFLAGELLAR ROD PROTEIN 1D, PUTATIVE): 0.77 | fold change vs vehicle control (protein LMJF.29.1780 DIPHTHAMIDE SYNTHESIS PROTEIN, PUTATIVE): 0.62 | fold change vs vehicle control (protein LMJF.29.2240 AMINOPEPTIDASE, PUTATIVE): 0.98 | fold change (protein LMJF.29.2310 ENOYL-COA HYDRATASE/ISOMERASE-LIKE PROTEIN): 0.95 | fold change (protein LMJF.29.2860 40S RIBOSOMAL PROTEIN S19-LIKE PROTEIN): 1.25 | fold change vs vehicle control (protein LMJF.30.0850 SURFACE PROTEIN AMASTIN, PUTATIVE): 0.97 | fold change (protein LMJF.30.1250 PYRIDOXAL KINASE, PUTATIVE): 1.06 | fold change (protein LMJF.30.2580 RETICULON DOMAIN PROTEIN, 22 KDA POTENTIALLY AGGRAVATING PROTEIN (PAPLE22)): 1.3 | fold change vs vehicle control (protein LMJF.30.3190 3-HYDROXY-3-METHYLGLUTARYL-COA REDUCTASE): 0.77 | fold change vs vehicle control (protein LMJF.30.3520 S-ADENOSYL[…]): 1.09 | fold change vs vehicle control (protein LMJF.31.0440 CYTOSKELETON-[…] CAP5 5, PUTATIVE): 0.82 | fold change (protein LMJF.31.1130 N-ACYL-L-AMINO ACID AMIDOHYDROLASE, PUTATIVE): 0.74 | fold change vs vehicle control (protein LMJF.31.1640 THIOLASE PROTEIN-LIKE PROTEIN): 1.14 | fold change (protein LMJF.31.1800 AMINO ACID PERMEASE): 1.07 | fold change (protein LMJF.31.2250 3,2-TRANS-ENOYL-COA ISOMERASE, MIT[…], PUTATIVE): 0.85 | fold change vs vehicle control (protein LMJF.31.2790 ADP-RI[…], PUTATIVE): 1.12 | fold change (protein LMJF.31.3130 METHYLCROTONOYL-COA CARBOXYLASE BIOTINYLATED SUBUNITPROTEIN-LIKE PROTEIN): 0.91 | fold change (protein LMJF.32.0010 HYPOTHETICAL PROTEIN, CONSERVED): 0.92 | fold change vs vehicle control (protein LMJF.32.0400 ATP-DEPENDENT RNA HELICASE, PUTATIVE): 1 | fold change vs vehicle control (protein LMJF.32.0520 PROFILIN, PUTATIVE): 0.98 | fold change (protein LMJF.32.1000 CHAPERONIN CONTAINING T-COMPLEX PROTEIN, PUTATIVE): 0.99 | fold change vs vehicle control (protein LMJF.32.3010 HY[…], CONSERVED,LEUCINE-RICH REPEAT PROTEIN, PUTATIVE): 1.06 | fold change vs vehicle control (protein LMJF.32.3870 MYOSIN XXI): 0.77 | fold change vs vehicle control (protein LMJF.33.0890, HYPOTHETICAL PROTEIN, CONSERVED): 1.1 | fold change vs vehicle control (protein LMJF.33.1070 HYPOTHETICAL PROTEIN, UNKNOWN FUNCTION): 0.91 | fold change (protein LMJF.33.1330 CYSTEINE CONJUGATE BETA-LYASE, AMINOTRANSFERASE- LIKE PROTEIN): 1.04 | fold change (protein LMJF.33.1610 PEPTIDASE M20/M25/M40, PUTATIVE): 0.82 | fold change relative to vehicle control (protein LMJF.33.1630 CYCLOPHILIN 4, PUTATIVE): 1.08 | fold change vs vehicle control (protein LMJF.33.2300 UDP-GLC 4'-EPIMERASE, PUTATIVE): 1.07 | fold change vs vehicle control (protein LMJF.33.2390 HEAT SHOCK PROTEIN, PUTATIVE): 1.41 | fold change (protein LMJF.33.2410 HYPOTHETICAL PROTEIN, CONSERVED): 0.95 | fold change (protein LMJF.33.3150 40S RIBOSOMAL PROTEIN S13, PUTATIVE): 1.11 | fold change (protein LMJF.34.3500 RUVB-LIKE 1 DNA HELICASE, PUTATIVE): 0.93 | fold change (protein LMJF.34.3670 VACUOLAR ATP SYNTHASE CATALYTIC SUBUNIT A, PUTATIVE): 1.02 | fold change (protein LMJF.34.3740 SERINE PALMITOYLTRANSFERASE-LIKE PROTEIN): 0.91 | fold change (protein LMJF.34.4120 HYPOTHETICAL PROTEIN, CONSERVED): 0.82 | fold change vs vehicle control (protein LMJF.34.4370 20S PROTEASOME BETA 7 SUBUNIT, (PUTATIVE)): 0.95 | fold change (protein LMJF.35.0370 ATP-DEPENDENT DEAD-BOX RNA HELICASE, PUTATIVE): 1.01 | fold change vs vehicle control (protein LMJF.35.1380, MITOCHONDRIAL PROCESSING PEPTIDASE, BETA SUBUNIT, PUTATIVE): 0.97 | fold change vs vehicle control (protein LMJF.35.1410 THREONYL-TRNA SYNTHETASE, PUTATIVE): 0.94 | fold change vs vehicle control (protein LMJF.35.1720 CYCLOPHILIN 14, PUTATIVE): 1.02 | fold change (protein LMJF.35.2500 HYPOTHETICAL PROTEIN, CONSERVED): 0.72 | fold change (protein LMJF.35.2730 ACYL-COA DEHYDROGENASE, PUTATIVE): 0.86 | fold change relative to vehicle control (protein LMJF.35.3010 […],TRYPANOTHIONE-DEPENDENT […]): 1.13 | fold change vs vehicle control (protein LMJF.35.3100 ATP-DEPENDENT RNA HELICASE, PUTATIVE): 0.99 | fold change vs vehicle control (protein LMJF.35.3340 6-phosphogluconate dehydrogenase): 1.08 | fold change (protein LMJF.35.3700 GIM5A PROTEIN, PUTATIVE,GLYCOSOMAL MEMBRANE PROTEIN): 0.94 | fold change vs vehicle control (protein LMJF.35.3840, […] 2 SUBUNIT, PUTATIVE): 1.01 | fold change vs vehicle control (protein LMJF.35.3860 T-COMPLEX PROTEIN 1, ETA SUBUNIT, PUTATIVE): 0.99 | fold change (protein LMJF.35.4550 HYPOTHETICAL PROTEIN, CONSERVED): 0.97 | fold change (protein LMJF.35.4770 CYCLOPHILIN 40): 1.17 | fold change (protein LMJF.35.4850 PROTEASOME ALPHA 1 SUBUNIT, PUTATIVE): 0.91 | fold change (protein LMJF.35.4860 HYPOTHETICAL PROTEIN, CONSERVED): 0.85 | fold change relative to vehicle control (protein LMJF.35.5330 ISOPENTENYL-DIPHOSPHATE DELTA-ISOMERASE, PUTATIVE,ISOMERASE, PUTATIVE): 1.62 | fold change vs vehicle control (protein LMJF.36.0180 […] 2): 1.03 | fold change vs vehicle control (protein LMJF.36.0620 HY[…], CONSERVED): 1.34 | fold change vs vehicle control (protein LMJF.36.0990 40S RIBOSOMAL PROTEIN S10, PUTATIVE): 1.1 | fold change vs vehicle control (protein LMJF.36.2020 CHAPERONIN HSP60, MITOCHONDRIAL PRECURSOR): 0.95 | fold change vs vehicle control (protein LMJF.36.3460 HYPOTHETICAL PROTEIN, CONSERVED): 0.82 | fold change (protein LMJF.36.3760 60S RIBOSOMAL PROTEIN L10A, PUTATIVE): 1.26 | fold change vs vehicle control (protein LMJF.36.3840 GLYCYL TRNA SYNTHETASE, PUTATIVE): 0.85 | fold change vs vehicle control (protein LMJF.36.4170 OXIDOREDUCTASE, PUTATIVE): 0.84 | fold change vs vehicle control (protein LMJF.36.5010 40S RIBOSOMAL PROTEIN SA, PUTATIVE): 1.09 | fold change (protein LMJF.36.5390 PHOSPHORIBOSYLPYROPHOSPHATE SYNTHETASE, PUTATIVE): 0.86 | fold change vs vehicle control (protein LMJF.36.5620 ISOLEUCYL-TRNA SYNTHETASE, PUTATIVE): 0.97 | fold change vs vehicle control (protein LMJF.36.6430 PROTEIN TRANSPORT PROTEIN SEC23-LIKE PROTEIN): 0.85 | fold change (protein LMJF.36.6760 HY[…], CONSERVED): 1.01 | fold change vs vehicle control (protein LMJF.36.6910 T-COMPLEX PROTEIN 1, THETA SUBUNIT, PUTATIVE): 1 | fold change vs vehicle control (protein LMJF.36.6940 disulfide isomerase PDI): 1.14 | fold change vs vehicle control (protein LMJF.[…] […] EXOPOLYPHOSPHATASE, PUTATIVE): 1.19
